Assay results from US20020065314A1, “COMPOSITIONS AND METHOD FOR STIMULATING HAIR GROWTH” (priority 1995, published 2002).
Where two headings read alike, the source gives them in different places.

Key:
C57BL/KsJ db/+ mice = tested on: C57BL/KsJ db/+ mice
Protocol: The induction of hair loss following treatment with certain anticancer drugs, such as cyclophosphamide or doxorubicin, is well documented (A. Tierney & J. Taylor (1991) Nurs. Stand 5:29-31; R. R. Love, et al. (1989) Cancer 63:604-612; B. W. Cline (1984) Cancer Nurs. 7:221-228). The following experiment was performed to determine the effect of n-butyl cyanoacrylate on hair regrowth in mice pre-treated with cyclophosphamide or doxorubicin. Twenty mice of strain C57BL/KsJ db/+ were peritoneally injected with either cyclophosphamide in PBS (20 mg per kilogram of body weight) or Doxorubicin in PBS (2 mg per kilogram of body weight) for 10 consecutive days. Then a single 10 μl dose of n-butyl cyanoacrylate was applied topically to an area of the shaved dorsum of each animal. Control mice, which were injected with PBS alone, were treated similarly. The effects of hair regrowth were determined both by phototrichogram (macroscopic observation using photography) and by folliculogram (microscopic observation of histological changes in the treated and untreated skin).

[1] = tested on: C57BL/KsJ db/+ and C57BL/KsJ db/db mice; test: Effect of isobutyl cyanoacrylate on hair growth, topical; assay type: in vivo, mouse; conditions: for Hair growth: 10 μl cm^−2 topical
Protocol: The following experiment was performed to identify the effect of isobutyl cyanoacrylate, a structural analog of n-butyl cyanoacrylate, on hair growth. The shaved backs of C57BL/KsJ db/+ and C57BL/KsJ db/db mice were treated topically at a dose of 10 μl cm^−2 with either isobutyl cyanoacrylate (Sigma Chemical Co., St Louis, Mo.) or n-butyl cyanoacrylate.

[2] = tested on: C57BL/KsJ db/+ and C57BL/KsJ db/db mice; test: Effect of isobutyl cyanoacrylate on hair growth, topical; assay type: in vivo, mouse
hair growth = test: Hair growth stimulation by comparison agents; conditions: in vivo

O=P1(N(CCCl)CCCl)NCCCO1 (stereo not shown) [cyclophosphamide, reference compound]
pigmentation of new hair and skin in pre-treated animals (C57BL/KsJ db/+ mice; pre-treatment with the anticancer drug, then topical n-butyl cyanoacrylate): lack of pigmentation in the new growth hairs

COc1cccc2c1C(=O)c1c(O)c3c(c(O)c1C2=O)C[C@@](O)(C(=O)CO)C[C@@H]3O[C@H]1C[C@H](N)[C@H](O)[C@H](C)O1 [doxorubicin, reference compound]
pigmentation of new hair and skin in pre-treated animals (C57BL/KsJ db/+ mice; mouse, in vivo): normal pigmentation

C=C(C#N)C(=O)OCC(C)C [isobutyl cyanoacrylate]
Hair growth ([1]; C57BL/KsJ db/+): 3+ (high hair regeneration with an area larger than 50% of the treated area)
Hair growth ([1]; C57BL/KsJ db/db): 3+ (high hair regeneration with an area larger than 50% of the treated area)
hair growth response compared with that of n-butyl cyanoacrylate ([1]; both strains): nearly identical
time at which hair growth was visible ([1]; both strains, post treatment): 8 to 12 days
time at which hair reached full length ([1]; both strains, post treatment): 15 to 18 days
time at which many new hair follicles occurred in treated area ([1]; both strains, post treatment): 2 to 3 days
response compared with hair growth induced by n-butyl cyanoacrylate (mice and rats; mice and rats): very similar
hair growth in normal intact skin, in skin of animals pre-treated with anticancer drugs, and at edges of wounds (mice and rats; two species (rat and mouse), seven strains of mouse): stimulate hair growth
hair growth on dorsum (photograph) ([2]; C57BL/KsJ +/+ mouse, 19 days post application): “T” pattern of hair growth
hair growth response to formulation with about 0.01% monomethyl hydroquinone ([2]; several strains of mice): positive response

CCCCOC(=O)CCCCCCCCC(=O)OCCCC [sebacic acid dibutyl ester]
stimulation of hair growth (hair growth): not effective in stimulating hair growth
